The source of these data is publication PMC3794980, “Identification of Conserved and HLA Promiscuous DENV3 T-Cell Epitopes” (PLoS Neglected Tropical Diseases, 2013).

Where no end group is shown, it is not given here.

Usually IC50 stands for the concentration at which inhibition is half-maximal.

Targets include DRB3*0101 (Homo sapiens, UniProt P01903+P79483); DRB4*0101 (Homo sapiens, UniProt P01903+P13762, G164S); DRB5*0101 (Homo sapiens, UniProt P01903+Q30154).
Assay in all cases: biochemical
What all share (format): binding

Consider `CC[C@H](C)[C@H](NC(=O)[C@H](CCCNC(=N)N)NC(=O)[C@H](CCCCN)NC(=O)[C@@H](NC(=O)[C@H](CCCNC(=N)N)NC(=O)[C@H](CCC(=O)O)NC(=O)CNC(=O)[C@@H](NC(=O)[C@@H](NC(=O)[C@H](CC(=O)O)NC(=O)[C@H](CCSC)NC(=O)[C@H](CC(N)=O)NC(=O)[C@@H]1CCCN1C(=O)[C@@H](NC(=O)[C@H](CCC(=O)O)NC(=O)[C@@H]1CCCN1)[C@@H](C)O)C(C)C)[C@@H](C)CC)[C@@H](C)CC)C(=O)N[C@@H](CCCCN)C(=O)O` [NS5 268-284], for which the concentration for half-maximal inhibition (IC50) against DRB3*0101 was found to be 1.39 µM; on DRB4*0101 it was 0.869 µM; against DRB5*0101 it was 2.83 µM.
For `CSCC[C@H](NC(=O)[C@H](CCSC)NC(=O)[C@H](CC(N)=O)NC(=O)[C@H](Cc1ccc(O)cc1)NC(=O)[C@@H](NC(=O)[C@H](CS)NC(=O)[C@H](CO)NC(=O)CN)C(C)C)C(=O)NCC(=O)N[C@@H](CCCCN)C(=O)N[C@@H](CCCNC(=N)N)C(=O)N[C@@H](CCC(=O)O)C(=O)N[C@@H](CCCCN)C(=O)N[C@@H](CCCCN)C(=O)N[C@@H](CC(C)C)C(=O)NCC(=O)N[C@@H](CCC(=O)O)C(=O)O` [NS5 447-463], the IC50 against DRB3*0101 was determined as 1.76 µM; on DRB4*0101, 8.47 µM; against DRB5*0101, 0.025 µM.
As for `CC(C)C[C@H](NC(=O)[C@H](Cc1ccccc1)NC(=O)CN)C(=O)N[C@@H](CC(N)=O)C(=O)N[C@@H](CCC(=O)O)C(=O)N[C@@H](CC(=O)O)C(=O)N[C@@H](Cc1c[nH]cn1)C(=O)N[C@@H](Cc1c[nH]c2ccccc12)C(=O)N[C@@H](Cc1ccccc1)C(=O)N[C@@H](CO)C(=O)N[C@@H](CCCNC(=N)N)C(=O)N[C@@H](CCC(=O)O)C(=O)N[C@@H](CC(N)=O)C(=O)N[C@@H](CO)C(=O)N[C@@H](Cc1ccc(O)cc1)C(=O)N[C@@H](CO)C(=O)NCC(=O)O` [NS5 489-505], the values for the IC50 against DRB3*0101, on DRB4*0101 and on DRB5*0101 were 0.387 µM, 13.9 µM and 0.936 µM, respectively.
Turning to `CC(C)C[C@H](N)C(=O)N[C@H](C(=O)N[C@@H](Cc1ccc(O)cc1)C(=O)N[C@@H](CCC(N)=O)C(=O)N[C@@H](CC(N)=O)C(=O)N[C@@H](CCCCN)C(=O)N[C@H](C(=O)N[C@H](C(=O)N[C@@H](CCCCN)C(=O)N[C@H](C(=O)N[C@@H](CCC(N)=O)C(=O)N[C@@H](CCCNC(=N)N)C(=O)N1CCC[C@H]1C(=O)N[C@H](C(=O)N1CCC[C@H]1C(=O)N[C@@H](CCCCN)C(=O)NCC(=O)O)[C@@H](C)O)C(C)C)C(C)C)C(C)C)[C@@H](C)O` [NS5 570-586], the IC50 was determined as 4.57 µM at DRB3*0101, 0.013 µM against DRB4*0101 and 0.028 µM at DRB5*0101.
With `CC[C@H](C)[C@H](NC(=O)[C@@H](NC(=O)[C@H](CC(=O)O)NC(=O)[C@H](CCSC)NC(=O)[C@@H](NC(=O)[C@@H](NC(=O)CNC(=O)[C@H](CCCCN)NC(=O)[C@@H]1CCCN1C(=O)[C@@H](NC(=O)[C@@H]1CCCN1C(=O)[C@H](CCCNC(=N)N)NC(=O)[C@H](CCC(N)=O)NC(=O)[C@@H](NC(=O)[C@H](CCCCN)NC(=O)[C@@H](NC(=O)[C@@H](N)C(C)C)C(C)C)C(C)C)[C@@H](C)O)[C@@H](C)O)C(C)C)[C@@H](C)CC)C(=O)O` [NS5 576-592], the results for the IC50 at DRB3*0101, against DRB4*0101 and against DRB5*0101 were 2.91 µM, 0.108 µM and 0.084 µM, respectively.
Take `CC[C@H](C)[C@H](NC(=O)[C@H](CC(=O)O)NC(=O)[C@H](CCSC)NC(=O)[C@@H](N)C(C)C)C(=O)N[C@H](C(=O)N[C@@H](CO)C(=O)N[C@@H](CCCNC(=N)N)C(=O)N[C@@H](CCCCN)C(=O)N[C@@H](CC(=O)O)C(=O)N[C@@H](CCC(N)=O)C(=O)N[C@@H](CCCNC(=N)N)C(=O)NCC(=O)N[C@@H](CO)C(=O)NCC(=O)N[C@@H](CCC(N)=O)C(=O)N[C@H](C(=O)NCC(=O)O)C(C)C)[C@@H](C)CC` [NS5 588-604]: the IC50 at DRB3*0101 came to 4.26 µM; at DRB4*0101, 6.24 µM; against DRB5*0101 it was 17.1 µM.
As for `CC[C@H](C)[C@H](NC(=O)[C@@H](N)CCCCN)C(=O)N[C@H](C(=O)N[C@@H](CCC(N)=O)C(=O)N[C@@H](Cc1c[nH]c2ccccc12)C(=O)N[C@@H](CC(C)C)C(=O)N[C@@H](CCC(=O)O)C(=O)N[C@H](C(=O)N[C@@H](CCCCN)C(=O)NCC(=O)N[C@H](C(=O)N[C@@H](CCC(=O)O)C(=O)N[C@@H](CCCNC(=N)N)C(=O)N[C@@H](CC(C)C)C(=O)N[C@@H](CCCCN)C(=O)N[C@@H](CCCNC(=N)N)C(=O)N[C@@H](CCSC)C(=O)O)C(C)C)[C@@H](C)O)[C@@H](C)O` [NS5 642-658], the IC50 turned out to be 12.2 µM at DRB3*0101, 15.3 µM against DRB4*0101 and 0.0051 µM on DRB5*0101.
The corresponding values for `CC[C@H](C)[C@H](NC(=O)[C@H](C)NC(=O)[C@@H](N)CCSC)C(=O)N[C@@H](CO)C(=O)NCC(=O)N[C@@H](CC(=O)O)C(=O)N[C@@H](CC(=O)O)C(=O)N[C@@H](CS)C(=O)N[C@H](C(=O)N[C@H](C(=O)N[C@@H](CCCCN)C(=O)N1CCC[C@H]1C(=O)N[C@H](C(=O)N[C@@H](CC(=O)O)C(=O)N[C@@H](CC(=O)O)C(=O)N[C@@H](CCCNC(=N)N)C(=O)N[C@@H](Cc1ccccc1)C(=O)O)[C@@H](C)CC)C(C)C)C(C)C` [NS5 658-674] are 1.93 µM, 19.4 µM and 1.54 µM.
As to `CC[C@H](C)[C@H](N)C(=O)N[C@@H](CC(=O)O)C(=O)N[C@@H](CC(=O)O)C(=O)N[C@@H](CCCNC(=N)N)C(=O)N[C@@H](Cc1ccccc1)C(=O)N[C@@H](C)C(=O)N[C@@H](CC(N)=O)C(=O)N[C@@H](C)C(=O)N[C@@H](CC(C)C)C(=O)N[C@@H](CC(C)C)C(=O)N[C@@H](C)C(=O)N[C@@H](CC(C)C)C(=O)N[C@@H](CC(N)=O)C(=O)N[C@@H](CC(=O)O)C(=O)N[C@@H](CCSC)C(=O)NCC(=O)N[C@@H](CCCCN)C(=O)O` [NS5 670-686], the figures for the concentration for half-maximal inhibition (IC50) against DRB3*0101, against DRB4*0101 and against DRB5*0101 were 7.5 µM, 0.971 µM and 0.478 µM, respectively.
In the case of `CC[C@H](C)[C@H](NC(=O)[C@H](CC(C)C)NC(=O)[C@H](CCC(=O)O)NC(=O)[C@H](CC(=O)O)NC(=O)[C@H](CCC(N)=O)NC(=O)[C@@H]1CCCN1C(=O)[C@H](CCCNC(=N)N)NC(=O)[C@H](CS)NC(=O)[C@@H]1CCCN1C(=O)[C@@H](NC(=O)[C@@H](NC(=O)[C@H](CC(C)C)NC(=O)[C@H](CCCCN)NC(=O)[C@H](CCCNC(=N)N)NC(=O)CNC(=O)[C@H](CC(=O)O)NC(=O)[C@@H](N)CCCCN)C(C)C)C(C)C)C(=O)O` [NS5 719-735], the IC50 stood at 5.68 µM against DRB3*0101, 17.8 µM against DRB4*0101 and 3.44 µM on DRB5*0101.
Turning to `CC(C)[C@H](NC(=O)[C@@H]1CCCN1C(=O)[C@@H](NC(=O)[C@H](C)NC(=O)[C@H](CO)NC(=O)[C@@H](N)CS)C(C)C)C(=O)N[C@@H](Cc1c[nH]cn1)C(=O)N[C@@H](Cc1c[nH]c2ccccc12)C(=O)N[C@H](C(=O)N1CCC[C@H]1C(=O)N[C@H](C(=O)N[C@@H](CO)C(=O)N[C@@H](CCCNC(=N)N)C(=O)N[C@H](C(=O)N[C@H](C(=O)N[C@@H](Cc1c[nH]c2ccccc12)C(=O)O)[C@@H](C)O)[C@@H](C)O)[C@@H](C)O)C(C)C` [NS5 780-795], the IC50 against DRB3*0101 turned out to be 2.34 µM; against DRB4*0101, 0.168 µM; against DRB5*0101, 1.95 µM.
As for `CC[C@H](C)[C@H](NC(=O)[C@H](CC(C)C)NC(=O)[C@H](CO)NC(=O)CNC(=O)[C@H](CS)NC(=O)[C@H](Cc1c[nH]c2ccccc12)NC(=O)[C@H](CCC(N)=O)NC(=O)[C@H](CC(=O)O)NC(=O)[C@H](CCC(=O)O)NC(=O)[C@H](CCCNC(=N)N)NC(=O)[C@H](CCCCN)NC(=O)CNC(=O)[C@H](CC(C)C)NC(=O)[C@@H](N)Cc1ccc(O)cc1)C(=O)NCC(=O)N[C@@H](CC(C)C)C(=O)N[C@H](C(=O)O)[C@@H](C)O` [NS5 838-854], the IC50 worked out at 0.079 µM at DRB3*0101, 1.59 µM against DRB4*0101 and 15.5 µM at DRB5*0101.
In the case of AILPEYGTLGLECSP [Envelope 171-185], the values for the IC50 against DRB3*0101, on DRB4*0101 and against DRB5*0101 were 12.6 µM, 0.787 µM and 17.2 µM, respectively.
Turning to ALTGATEIQNSGGTS [Envelope 261-275], the IC50 on DRB3*0101 is 17.5 µM; against DRB4*0101, 8.57 µM; against DRB5*0101, 3.67 µM.
For GTILVKVEYKGEDAP [Envelope 316-330], the IC50 came to 5.29 µM against DRB3*0101, 6.03 µM against DRB4*0101 and 5.26 µM against DRB5*0101.
Consider LGSQEGAMHTALTGA [Envelope 251-265], for which the IC50 against DRB3*0101 was 5.59 µM; on DRB4*0101, 7.21 µM; at DRB5*0101 it was 0.722 µM.
LKKEVSETQHGTILV [Envelope 306-320]: the figures for the IC50 against DRB3*0101, at DRB4*0101 and against DRB5*0101 were 12.1 µM, 7.86 µM and 12.6 µM, respectively.
The matching figures for MRCVGVGNRDFVEGL [Envelope 1-15]: 2.84 µM, 3.77 µM and 4.83 µM.
Turning to TNTFVLKKEVSETQH [Envelope 301-315], the IC50 came out at 2.83 µM on DRB3*0101, 2.19 µM against DRB4*0101 and 4.89 µM on DRB5*0101.
The corresponding values for TRGAVLTYNGKRLEP [NS3 53-67] are 3.29 µM, 11.5 µM and 0.329 µM.
For the compound VTFKNAHAKKPEVVV [Envelope 236-250], the IC50 against DRB3*0101 was found to be 18.2 µM; at DRB4*0101, 6.76 µM; against DRB5*0101, 0.03 µM.
